# Source: patent US5968526A, “T cell epitopes of the major allergens from Dermatophagoides (house dust mite)” (Immulogic Pharamaceutical Corporation, priority 1995, dated 1999)
# What was measured:
# [1] = test system: T cell lines primed in vitro to Der p I; assay: secondary proliferation of Der p I-primed T cell lines (Examples V, VII, XI); type: cell-based, human; settings: overlapping Der p I peptides; 33 positive experiments
# Summary of the method: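 PBMC were primed with native or recombinant Der p I (10 or 20 μg/ml) for 7 days, then expanded with IL-2 and IL-4. Resting T cells (2×10^4) were cultured 3 days with irradiated autologous EBV-B cells or PBMC and titrated protein or peptides, then pulsed 16 h with 1 μCi ³H-thymidine. S.I. was peak-response CPM over medium-only CPM, with S.I. ≥2.0 scored positive.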
# [2] = test system: T cell cultures reactive with Der p I from house dust mite-allergic subjects; assay: secondary T cell proliferation assay, Group I (Der p I) overlapping and candidate/unique peptides; percent of T cell reactivity; type: cell-based, human; settings: patient 1733; highest S.I. ≥2.0 recorded
# Source text: To determine whether a peptide (candidate peptide) or a combination of candidate peptides are likely to comprise a sufficient percentage of the T cell reactivity of house dust mite protein allergens, to induce T cell nonresponsiveness in a substantial percentage of a population of individuals sensitive to house dust mite allergen, an algorithm can be used. In accordance with one such algorithm, a set of overlapping peptides is produced by systematically dividing the protein allergen(s) of interest into al least two overlapping peptide regions of desired lengths (e.g., of about 12-30 amino acid residues in length, preferably not longer than about 25 amino acid residues in length with about 5-15 amino acid residues of overlap). This division into peptide regions can be arbitrary, can be made according to an algorithm, or can be wholly or partially based on regions of house dust mite Group I and/or Group II protein allergens known to comprise at least one T cell epitope. Preferably, at least 50% of the entire house dust mite protein allergen sequence and more preferably, the entire house dust mite protein allergen sequence is divided into two or more peptides. A human T cell stimulation index is determined for each of the peptides in an in vitro T cell proliferation assay as described herein for each individual tested in a population of individuals sensitive to the protein antigen. For example both WO93/08279 and WO94/24281 disclose T cell studies with overlapping peptides derived from Der p I, Der p II, Der f I and Der f II. A candidate peptide or combination of candidate peptides is selected based, at least in part, on the mean human T cell stimulation index of the candidate peptide in the set of peptides tested and the positivity index of the candidate peptide in the set of peptides tested (see, FIGS. 3 and 4). The human T cell stimulation index for the candidate peptide(s) is summed. For each individual, the human T cell stimulation index for the candidate peptide(s) is divided by the sum of the human T cells stimulation indices of the remaining peptides in the set of peptides tested to determine a percent of T cell reactivity as shown below:
# Alternatively, the presence of T cell epitopes in the candidate peptide dependent on amino acids residues in an overlapping peptide located at either the N-terminus or C-terminus of the candidate peptide in the amino acid sequence of the protein antigen, but which epitopes are not present in the candidate peptide can be considered in calculating the percent of T cell reactivity in the candidate peptide by use of the following formula: [formula]
# In this formula, "NT flanking peptide" refers to a peptide which comprises amino acid residues which overlap with amino acid residues located at the N-terminus of the candidate peptide in the amino acid sequence of the protein antigen from which the peptide is derived; "CT flanking peptide" refers to a peptide which comprises amino acid residues which overlap with amino acid residues located a the C-terminus of the candidate peptide in the amino acid sequence of the protein antigen from which the peptide is derived. In this calculation stimulation indices for the candidate peptide, the N-terminal flanking peptide and the C-terminal flanking peptide are added and divided by the sum total of the stimulation indices for the entire set of overlapping peptides obtain a percent of T cell reactivity for the candidate peptide. If a combination of two or more candidate peptides is selected each of which contains amino acid residues which overlap, this calculation cannot be used to determine a percent of T cell reactivity for each candidate peptide separately. However, a total percent of T cell reactivity for the combination of candidate peptides can be obtained. In this situation, the stimulation indices for all of the candidate peptides which overlap is included in the calculation. […]
# [3] = test system: PBMC from mite-allergic patient; assay: primary T cell (PBMC) proliferation, mite-allergic patient, tritiated thymidine; type: cell-based, human; settings: medium 1071 ± 30
# Summary of the method: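 Ficoll-purified PBMC (5×10^4/well, triplicate) from one mite-allergic donor cultured 7 days at 37 °C with graded concentrations of purified Der p I, Der p II or their peptides in RPMI-1640 plus 5% human AB serum. 1 μCi ^3H-thymidine added for 16 h; CPM counted, stimulation index = antigen CPM/medium-only CPM.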
# [4] = test system: T cell lines primed in vitro to Der f I; assay: secondary proliferation of Der f I-primed T cell lines (Examples VI, VII, XI); type: cell-based, human; settings: Der f I primed; 8 positive experiments; FIG. 8
# Summary of the method: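 PBMC from house dust mite-allergic patients were primed in vitro with recombinant or affinity-purified Der f I at 20 μg/ml (or 10 μg/ml), then rechallenged with Der f I peptides. Antigen-presenting cells were x-irradiated autologous PBMC (3500 Rads) or EBV-transformed B cells (25,000 Rads). Read-out was T cell proliferation.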
# [5] = pH-stability profile / solution stability (HPLC); type: physicochemical; settings: pH 6 to pH 8
# Procedure: (§1) 50 mM sodium phosphate stock solutions:
# (§2) Stock solution A: 0.66 g […] of monobasic sodium phosphate monohydrate U.S.P. and 50 mg EDTA disodium dihydrate, U.S.P. were dissolved in 100 mL of WFI. The solution was filtered through a 0.2 micron filter
# (§3) Stock solution B: 0.71 g […] of dibasic sodium phosphate U.S.P. were disolved in 100 ml WFI. The solution was filtered through a 0.2 micron filter.
# (§4) 2. Initial peptide dispersions
# (§5) Dispersion A: 3.0 mg of each candidate peptide,DPI-21.2 (SEQ. ID. NO. 28), DFI-22.2 (SEQ. ID. NO. 93), DFI-23.31(SEQ. ID. NO. 165), DFI-26.6 (SEQ. ID. NO. 168), DPII-20.9 (SEQ. ID. NO. 169), DPII-22.14 (SEQ. ID. NO. 180) and DPII-25.15 (SEQ. ID. NO. 188), was weighed out separately and placed in separate 1.5 mL eppendoff vials with 600 μL of stock solution A. The composition was agitated for 1 seconds to mix well.
# as §5, with “Dispersion B:” for “Dispersion A:”, “each peptide, DPI-21.2” for “each candidate peptide,DPI-21.2”, “solution B.” for “solution A.”, “The mixture” for “The composition”, “for 5” for “for 1”
# (§6) Dispersions A and B were sonicated for 2 minutes for good homogeneity. A small volume was pipetted from each dispersion into a labeled eppendoff vial according to the following volume ratio:
# (§7) The resultant solutions/suspensions were stored in the dark at about 22° C.±2 for 24 hours without agitation. The solutions were filtered and filtrates were analyzed for pH and peptide concentration.
# (§8) The concentration of filtered peptide solutions was determined by HPLC analysis. In this experiment, the solubility of peptide at each pH is defined as the amount of peptide remaining in solution after filtration through a membrane filter having a 0.2 micrometer pore size. The extent of degradation of peptides was estimated by calculating the percent of total degradant peak area over the total peak area.
# The pH-stability profiles for each peptide DPI-21.2 (SEQ. ID. NO. 28), DFI-22.2 (SEQ. ID. NO. 93), DFI-23.31(SEQ. ID. NO. 165), DFI-26.6 (SEQ. ID. NO. 168), DPII-20.9 (SEQ. ID. NO. 169), DPII-22.14 (SEQ. ID. NO. 180) and DPII-25.15 (SEQ. ID. NO. 188) in equal concentration combination at 3, 2, and 1 mg/ml per peptide and prepared in duplicate as described above with one set stored at about 5° C. for 24 hours and one set stored at about 22° C.±2 for 24 hours, were calculated and tabulated as a function of the percentage of total of degradant peak area (FIG. 38).
# [6] = pH-solubility profile; type: physicochemical; settings: at a pH in the range pH 6 to pH 8
# Procedure: as §1, §2, §3, §4, §5
# as §5, with “Dispersion B:” for “Dispersion A:”, “each peptide, DPI-21.2” for “each candidate peptide,DPI-21.2”, “solution B.” for “solution A.”, “The mixture” for “The composition”, “for 5” for “for 1”
# as §6, §7, §8
# The pH values with respect to the solubility values was plotted and are shown in FIG. 37 for each respective peptide. As shown in the solubility curve for each peptide as represented in FIG. 37, peptides DPI-21.2 (SEQ. ID. NO. 28), DFI-22.2 (SEQ. ID. NO. 93), DFI-23.31 (SEQ. ID. NO. 165), DFI-26.6 (SEQ. ID. NO. 168), DPII-20.9 (SEQ. ID. NO. 169), DPII-22.14 (SEQ. ID. NO. 180) and DPII-25.15 (SEQ. ID. NO. 188) are each soluble at greater than 3 mg/ml at a pH in the pH range of pH 6 to pH 8.
# [7] = test system: mast cells or basophils; assay: histamine release; type: cell-based, human; settings: data not shown
# Procedure: To determine whether a peptide which binds IgE results in the release of mediators, a histamine release assay can be performed using standard reagents and protocols obtained for example, from Amac, Inc. (Westbrook, Me.). Briefly, a buffered solution of a peptide to be tested is combined with an equal volume of whole heparinized blood from an allergic subject. After mixing and incubation, the cells are pelleted and the supernatants are processed and analyzed using a radioimmunoassay to determine the amount of histamine released.
# [8] = test system: human IgE; assay: direct binding ELISA of IgE to mite allergen proteins and peptides; settings: data not shown
# Procedure: The coating antigens were removed and the wells are blocked with 0.5% gelatin in PBS, 300 μl/well for 2 hours at room temperature. Pooled human plasma (a mix of plasma samples from 20 patients that were skin test positive for commerical mite extract) was serially diluted with PBS-Tween 20 (PBS with 0.05% nonionic detergent Tween-20 Sigma, St. Louis, Mo.) and 100 μl/well a.backslash.was added and incubated overnight at 4° C. (plasma dilutions were tested in duplicate). The second antibody (biotinylated goat anti-Human IgE, 1:1000, Kirkegaard & Perry Laboratories Inc, Gaithersburg, Md.), was added at 100 μl/well for one hour at room temperature. This solution was removed and streptavidin-HRPO, 1:10000, (Southern Biotechnology Associates, Inc., Birmingham, Ala.) was then added at 100 μl/well for one hour at room temperature (all wells are washed three times with PBS-Tween between each incubation step). TMB Membrane Peroxidase Substrate system (Kirkegaard & Perry Laboratories) was freshly miced, and added at […]. The color was allowed to develop for 2-5 minutes. The reaction was stopped by the addition of […] of 1M phosphoric acid. Plates were read on a Microplate IL310 Autoreader (Biotech Instruments, Winooski, Vt.) with a 450 nm filter. The absorbance levels of duplicate wells were averaged. The order of coating antigens listed vertically in these figure legends corresponds in orDer from left to right to the coating antigens listed for each histogram.
# The antigen preparation that was used as a positive control was a mixture of the four major biochemically purified mite allergens (term PMA for Purified Mite Allergen); Der f I, Der f II, Der p I and Der p II. The stock was generated at a concentration of 100 μgs of each protein per millimeter or 400 μgs total protein/ml. This preparation was used on each coated ELISA plate.
substance,measurement,setting,value
DP I-10: Der p I peptide (QGVDYWIVRNSWDTNWGDNGYGYF),T cell reactivity,[1],significant regions of T cell reactivity
same,T cell stimulation index (S.I.),[2],0
same,CPM ± S.D.,[3]; 10 μg/ml,1936 ± 50 CPM
same,CPM ± S.D.,[3]; 30 μg/ml,3042 ± 89 CPM
same,CPM ± S.D.,[3]; 100 μg/ml,2644 ± 63 CPM
DP I-14: Der p I peptide (QSCRRPNAQRFGISNYCQI),T cell stimulation index (S.I.),[2],2.3
same,T cell response to Der p I peptides,[4],respond significantly
DP I-15: Der p I peptide (RFGISNYCQIYPPNANKIREAL),T cell stimulation index (S.I.),[2],2.8
same,T cell response to Der p I peptides,[4],respond significantly
DP II-25.15: modified Der p II peptide; unique peptide (DEETVKVMGDDGVLACAIATHAKIRDEE),stability (in words),[5],acceptable solution stability
same,solubility,[6],greater than 3 mg/ml
same,histamine release,[7],negative
same,"IgE reactivity, candidate peptides",[8],negative
